Reference: US20150315241A1, “Antibiotic Peptides” (priority 2007, published 2015)
Converted amounts (≈) assume the structure as drawn. Like-named read-outs stand apart in the source and are kept apart here. Where a SMILES comes first, the peptide text is derived from it. [ ]: non-standard residue; d: D form. Hyp = O=C(O)[C@@H]1C[C@@H](O)CN1; Orn = NCCC[C@H](N)C(=O)O

Experiments:
E. coli 1103 = assay type: cell-based, Escherichia coli
How it was run: (§1)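 Bacteria grown overnight in NB at 37° C. were adjusted to 5×10^6 CFU/mL in 1% TSB and mixed 1:1 with a two-fold peptide series (final 125 μg/mL–60 ng/mL). After 20 hrs at 37° C., A595 was read; triplicates.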

B. subtilis 347 = assay type: cell-based, Bactillus subtillis
How it was run: as §1

M. luteus ATCC 10240 = assay type: cell-based, Micrococcus luteus
How it was run: as §1

E. coli BL 21 AI = test: Growth inhibition assay (MIC); assay type: cell-based, Escherichia coli; conditions: 1% TSB, 37° C., 20 hrs
How it was run: as §1

E. coli DC 2 = test: Growth inhibition assay (MIC); assay type: cell-based, Escherichia coli; conditions: 1% TSB, 37° C., 20 hrs
How it was run: as §1

Mycobacterium vaccae = assay type: cell-based
Protocol: The minimal inhibition concentrations (MIC) of the apidaecin-derived peptides and peptide-derivatives were determined by a growth inhibition assay using a serial peptide dilution in sterilized round-bottom 96-well plates (polystyrene, U-bottom, Greiner Bio-One GmbH) with a final volume of 100 μL per well. The bacteria, e.g., E. coli BL21 A1, were grown in nutrient broth (NB, Carl Roth GmbH+Co. KG, Karlsruhe, Germany) at 37° C. over night. To each well of the 96-well plate, 50 μL of the overnight culture adjusted to 5×10^6 CFU/mL in 1% TSB were added. Lyophilized peptides and peptidomimetics were dissolved in 1% TSB (tryptic soy broth) or water to give a final concentration of 250 μg/mL. Fifty μL of the peptide or peptidomimetics solution were added to the first well of a row on the plate and mixed. Fifty μL of the first well containing the peptide solution were transferred to the second well, mixed and again 50 μL transferred to the next well and so on. Thereby, a two-fold dilution series was obtained starting at 250 μg/mL in the first well down to 120 ng/mL in the 12th well of a row giving a final peptide or peptidomimetics concentration from 125 μg/mL (well 1) to 60 ng/mL (well 12). Plates were incubated at 37° C. for 20 hrs. The absorbance was measured at 595 nm using a TECAN micro plate spectrophotometer (Tecan, Germany). All peptides and peptidomimetics were measured in triplicates. Sterilized water was used as a negative control.
The bacteria strains were tested: • Eschericha coli 1103, 10233, BL 21 AI, DC 2, • Klebsiella pneumoniae 681, • Micrococcus luteus ATCC 10240, • Mycobacterium vaccae • Bactillus subtillis 347.

K. pneumonia 681 = assay type: cell-based, Klebsiella pneumoniae
How it was run: as §1

K. Pneumonia 123132 = test: Growth inhibition assay (MIC); assay type: cell-based, Klebsiella pneumoniae
How it was run: (§2)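 Two-fold serial broth microdilution in 1% TSB, final peptide 125 μg/mL down to 60 ng/mL. Inoculum from overnight nutrient-broth cultures adjusted to 5×10^6 CFU/mL. After 20 hrs at 37° C., growth was read as absorbance at 595 nm; triplicates, sterile water as negative control.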

[1] = system: K. Pneumonia K6, ATCC 700603; test: Growth inhibition assay (MIC); assay type: cell-based, Klebsiella pneumoniae; conditions: multidrug resistant strain; 1% TSB, 37° C., 20 hrs
How it was run: as §2

S. typhi S5 = assay type: cell-based, Salmonella typhi; conditions: S5, 20 h
How it was run: as §2

E. coli D31 = assay type: cell-based, Escherichia coli; conditions: D31, 20 h
How it was run: as §2

E. coli 45849 = test: Growth inhibition assay (MIC); assay type: cell-based, Escherichia coli
How it was run: as §2

[2] = system: R. radiobatter ATCC 15955; test: Growth inhibition assay (MIC); assay type: cell-based, Rhizobium radiobacter
How it was run: as §2

[3] = system: S. enterica subsp. Enterica serovar. typhi G10215 ATCC 700408; assay type: cell-based, Salmonella enterica; conditions: ATCC 700408, 20 h
How it was run: as §2

in vitro = in vitro ADME, mouse; conditions: 25% aqueous mouse serum, 37° C.; read-out: Half-life time
How it was run: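 Peptide or peptidomimetic (0.5 mg/mL aqueous stock) incubated in 25% pooled mouse serum at 37 °C, sampled at 0–6 h, in duplicate. Proteins precipitated with 15% TCA; supernatants neutralized and analyzed by RP-HPLC with 0.1% TFA. Degradation products identified by MALDI-TOF/TOF-MS.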

[4] = multidrug resistant strain, 1% TSB, 37° C., 20 hrs

| Molecule | MIC E. coli 1103 (E. coli 1103; 1103, 20 h) [µg/mL] | MIC B. subtilis 347 (B. subtilis 347; 347, 20 h) [µg/mL] | MIC M. luteus ATCC 10240 (M. luteus ATCC 10240; ATCC 10240, 20 h) [µg/mL] | MIC E. coli BL 21 AI (E. coli BL 21 AI) [µg/mL] | MIC E. coli DC 2 (E. coli DC 2) [µg/mL] | MIC Mycobacterium vaccae (Mycobacterium vaccae; 20 h) [µg/mL] | MIC K. pneumonia 681 (K. pneumonia 681; 20 h) [µg/mL] | MIC K. Pneumonia K6, ATCC 700603 [1] [µg/mL] | MIC S. typhi S5 (S. typhi S5) [µg/mL] | MIC E. coli D31 (E. coli D31) [µg/mL] | other results |
| --- | --- | --- | --- | --- | --- | --- | --- | --- | --- | --- | --- |
| H-GNNKPVYIPRPRPPHPRLV-NH2 [compound 68] | 3.9 | >125 | 0.24 | 7.81 | 7.81 | 125 | 31.25 | – | – | – | – |
| CC[C@H](C)[C@H](NC(=O)[C@H](CCCNC(=N)N)NC(=O)[C@@H]1CCCN1C(=O)[C@H](Cc1c[nH]cn1)NC(=O)[C@@H]1CCCN1C(=O)[C@@H]1CCCN1C(=O)[C@H](CCCNC(=N)N)NC(=O)[C@@H]1CCCN1C(=O)[C@H](CCCN)NC(=O)[C@@H]1CCCN1C(=O)[C@@H](NC(=O)[C@H](Cc1ccc(O)cc1)NC(=O)[C@@H](NC(=O)[C@@H]1CCCN1C(=O)[C@H](CCCNC(=N)N)NC(=O)[C@H](CC(N)=O)NC(=O)[C@H](CC(N)=O)NC(=O)CN)C(C)C)[C@@H](C)CC)C(N)=O [compound 9] (H-GNNRPVYIP[Orn]PRPPHPRI-NH2) | – | – | – | 0.49 (≈ 0.234 µM) | 1.95 (≈ 0.931 µM) | – | – | 16 (≈ 7.64 µM) | 2 (≈ 0.955 µM) | 16 (≈ 7.64 µM) | MIC E. coli 1103 (E. coli 1103; 1% TSB, 37° C., 20 hrs): 3.9 µg/mL (≈ 1.86 µM); MIC B. subtilis 347 (B. subtilis 347; 1% TSB, 37° C., 20 hrs): >125 µg/mL; MIC M. luteus ATCC 10240 (M. luteus ATCC 10240; 1% TSB, 37° C., 20 hrs): 1.95 µg/mL (≈ 0.931 µM); MIC K. Pneumonia 123132 (K. Pneumonia 123132; 20 h): 8 µg/mL (≈ 3.82 µM); MIC Mycobacterium vaccae (Mycobacterium vaccae; 1% TSB, 37° C., 20 hrs): 125 µg/mL (≈ 59.7 µM); MIC E. coli 45849 (E. coli 45849; 45849, 20 h): 1 µg/mL (≈ 0.478 µM); MIC K. pneumonia 681 (K. pneumonia 681; 1% TSB, 37° C., 20 hrs): 3.9 µg/mL (≈ 1.86 µM); MIC R. radiobatter ATCC 15955 ([2]; ATCC 15955, 20 h): <0.16 µg/mL |
| CC[C@H](C)[C@H](NC(=O)[C@H](Cc1ccc(O)cc1)NC(=O)[C@@H](NC(=O)[C@@H]1CCCN1C(=O)[C@H](CCCNC(=N)N)NC(=O)[C@H](CC(N)=O)NC(=O)[C@H](CC(N)=O)NC(=O)CN)C(C)C)C(=O)N1CCC[C@H]1C(=O)N[C@@H](CCCNC(=N)N)C(=O)N1C[C@H](O)C[C@H]1C(=O)N[C@@H](CCCNC(=N)N)C(=O)N1CCC[C@H]1C(=O)N1CCC[C@H]1C(=O)N[C@@H](Cc1c[nH]cn1)C(=O)N1CCC[C@H]1C(=O)N[C@@H](CCCNC(=N)N)C(=O)N[C@@H](CC(C)C)C(N)=O [compound 20] (H-GNNRPVYIPR[Hyp]RPPHPRL-NH2) | 3.9 (≈ 1.81 µM) | >125 | 1.95 (≈ 0.906 µM) | 0.49 (≈ 0.228 µM) | 1.95 to 3.91 | 125 (≈ 58.1 µM) | 3.9 (≈ 1.81 µM) | 8 (≈ 3.72 µM) | <0.5 | 32 (≈ 14.9 µM) | MIC K. Pneumonia 123132 (K. Pneumonia 123132; [4]): 4 µg/mL (≈ 1.86 µM); MIC E. coli 45849 (E. coli 45849; [4]): 1 µg/mL (≈ 0.465 µM); MIC R. radiobatter ATCC 15955 [2, 4]: 0.33 µg/mL (≈ 0.153 µM) |
| H-GNNRPVYIPRPRPPHPRL-NH2 [compound 66] | 3.9 | 62.5 | 1.95 | 1.95 | 1.95 | 125 | 3.9 | – | – | – | – |
| CC[C@H](C)[C@H](NC(=O)[C@H](CCCNC(=N)N)NC(=O)[C@@H]1CCCN1C(=O)[C@H](Cc1c[nH]cn1)NC(=O)[C@@H]1CCCN1C(=O)[C@@H]1CCCN1C(=O)[C@H](CCCNC(=N)N)NC(=O)[C@@H]1CCCN1C(=O)[C@H](CCCNC(=N)N)NC(=O)[C@@H]1CCCN1C(=O)[C@@H](NC(=O)[C@H](Cc1ccc(O)cc1)NC(=O)[C@@H](NC(=O)[C@@H]1CCCN1C(=O)[C@H](CCCNC(=N)N)NC(=O)[C@H](CC(N)=O)NC(=O)[C@H](CC(N)=O)NC(=O)[C@H](CCCN)NC(C)=O)C(C)C)[C@@H](C)CC)C(N)=O [compound 65] (Ac-[Orn]NNRPVYIPRPRPPHPRI-NH2) | 1.95 (≈ 0.873 µM) | 125 (≈ 55.9 µM) | 0.98 (≈ 0.439 µM) | 0.98 (≈ 0.439 µM) | 7.81 (≈ 3.49 µM) | 62.5 (≈ 28 µM) | 7.81 (≈ 3.49 µM) | – | – | – | – |
| CC[C@H](C)[C@H](NC(=O)[C@H](Cc1ccc(O)cc1)NC(=O)[C@@H](NC(=O)[C@@H]1CCCN1C(=O)[C@H](CCCNC(=N)N)NC(=O)[C@H](CC(N)=O)NC(=O)[C@H](CC(N)=O)NC(=O)[C@@H](N)CCCN)C(C)C)C(=O)N1CCC[C@H]1C(=O)N[C@@H](CCC(N)=O)C(=O)N1CCC[C@H]1C(=O)N[C@@H](CCCNC(=N)N)C(=O)N1CCC[C@H]1C(=O)N1CCC[C@H]1C(=O)N[C@@H](Cc1c[nH]cn1)C(=O)N1CCC[C@H]1C(=O)N[C@@H](CCCNC(=N)N)C(=O)N[C@@H](CC(C)C)C(N)=O [compound 8] (H-[Orn]NNRPVYIPQPRPPHPRL-NH2) | – | >125 | 7.84 (≈ 3.62 µM) | 0.24 (≈ 0.111 µM) | 0.98 (≈ 0.453 µM) | 125 (≈ 57.7 µM) | 1.95 (≈ 0.901 µM) | 16 (≈ 7.39 µM) | <0.5 | 2 (≈ 0.924 µM) | MIC S. enterica subsp. Enterica serovar. typhi G10215 ATCC 700408 [3]: <0.25 µg/mL; MIC K. Pneumonia 123132 (K. Pneumonia 123132; [4]): 1 µg/mL (≈ 0.462 µM); half-life at 0.061 mg/mL (in vitro): 30 min; MIC E. coli 45849 (E. coli 45849; [4]): <0.25 µg/mL; MIC R. radiobatter ATCC 15955 [2, 4]: <0.16 µg/mL |
| CC[C@H](C)[C@H](NC(=O)[C@H](CCCNC(=N)N)NC(=O)[C@@H]1CCCN1C(=O)[C@H](Cc1c[nH]cn1)NC(=O)[C@@H]1CCCN1C(=O)[C@@H]1CCCN1C(=O)[C@H](CCCNC(=N)N)NC(=O)[C@@H]1C[C@@H](O)CN1C(=O)[C@H](CCCNC(=N)N)NC(=O)[C@@H]1CCCN1C(=O)[C@@H](NC(=O)[C@H](Cc1ccc(O)cc1)NC(=O)[C@@H](NC(=O)[C@@H]1CCCN1C(=O)[C@H](CCCNC(=N)N)NC(=O)[C@H](CC(N)=O)NC(=O)[C@H](CC(N)=O)NC(=O)CN)C(C)C)[C@@H](C)CC)C(N)=O [compound 15] (H-GNNRPVYIPR[Hyp]RPPHPRI-NH2) | 1.95 (≈ 0.906 µM) | >125 | 1.95 (≈ 0.906 µM) | – | – | 125 (≈ 58.1 µM) | 3.9 (≈ 1.81 µM) | – | 2 (≈ 0.93 µM) | 64 (≈ 29.7 µM) | MIC S. enterica subsp. Enterica serovar. typhi G10215 ATCC 700408 [3]: 2 µg/mL (≈ 0.93 µM) |
| Ac-GNNRPVYIPRPRPPHPRL-NH2 [compound 67] | 3.9 | 125 | 1.95 | 3.91 | 3.9 | 125 | 3.9 | – | – | – | – |
